Converted amounts (≈) assume the structure as drawn. Where a name gives a salt, the structure may show the parent alone.
Columns and labels:
Type in all cases: cell-based
S. aureus ATCC 29213 = experiment: In vitro antibacterial evaluation, MIC by agar dilution, S. aureus ATCC 29213; settings: Staphylococcus aureus, ATCC29213
How it was run: (§1)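 Growth inhibition on Mueller-Hinton agar plates defined the MIC, the lowest compound level stopping visible growth after 16-20 hours at 35°-36° C. Compound was incorporated at two-fold steps from 128 μg/mL to ≤0.25 μg/mL, each tested twice, with about 10^4 cfu spotted per isolate.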

S. aureus ATCC 25923 = experiment: In vitro antibacterial evaluation, MIC by agar dilution, S. aureus ATCC 25923; settings: Staphylococcus aureus, ATCC25923
How it was run: as §1

[1] = test system: S. epidermidis ATCC 31432; experiment: In vitro antibacterial evaluation, MIC by agar dilution, S. epidermidis ATCC 31432; settings: Staphylococcus epidermidis, ATCC31432
How it was run: as §1

[2] = test system: S. aureus 76 (Meth^R)(lac^+); experiment: In vitro antibacterial evaluation, MIC by agar dilution, S. aureus 76; settings: Staphylococcus aureus, read-out: MIC
How it was run: as §1

[3] = test system: S. aureus Col8A (Meth^S)(lac^-); experiment: In vitro antibacterial evaluation, MIC by agar dilution, S. aureus Col8A; settings: Staphylococcus aureus
How it was run: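 Agar dilution per NCCLS (1991): two-fold dilutions from 128 μg/mL down to ≤0.25 μg/mL in Mueller-Hinton agar, each level in duplicate. Spots of about 10^4 cfu of log-phase culture; 16-20 h at 35°-36° C. MIC in μg/ml is the lowest concentration inhibiting growth.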

S. haemolyticus (Meth^R) = experiment: In vitro antibacterial evaluation, MIC by agar dilution, S. haemolyticus; settings: Staphylococcus haemolyticus, read-out: MIC
How it was run: as §1

E. faecium ATCC 35667 = experiment: In vitro antibacterial evaluation, MIC by agar dilution, E. faecium ATCC 35667; settings: Enterococcus faecium, ATCC35667, read-out: MIC
How it was run: as §1

E. faecalis ATCC 29212 = experiment: In vitro antibacterial evaluation, MIC by agar dilution, E. faecalis ATCC 29212; settings: Enterococcus faecalis, ATCC29212; E. faecalis ATCC 29212; read-out: MIC
How it was run: as §1

E. coli ATCC 25922 = experiment: In vitro antibacterial evaluation, MIC by agar dilution, E. coli ATCC 25922; settings: Escherichia coli, ATCC25922, read-out: MIC
How it was run: as §1

P. aeruginosa ATCC 27853 = experiment: In vitro antibacterial evaluation, MIC by agar dilution, P. aeruginosa ATCC 27853; settings: Pseudomonas aeruginosa, ATCC27853, read-out: MIC
How it was run: as §1

SMILES	MIC (S. aureus ATCC 29213) [µg/mL]	MIC (S. aureus ATCC 25923) [µg/mL]	MIC [1] [µg/mL]	MIC [2] [µg/mL]	MIC [3] [µg/mL]	MIC (S. haemolyticus (Meth^R)) [µg/mL]	MIC (E. faecium ATCC 35667) [µg/mL]	MIC (E. faecalis ATCC 29212) [µg/mL]	MIC (E. coli ATCC 25922) [µg/mL]	MIC (P. aeruginosa ATCC 27853) [µg/mL]
O=C1CNC(SCc2ccccc2SC2=C(C(=O)O)N3C(=O)[C@@H](NC(=O)Cc4ccccc4)[C@H]3SC2)=N1 [Cmpd 68]	< 0.25	< 0.25	< 0.25	16 (≈ 28.8 µM)	< 0.25	32 (≈ 57.7 µM)	4 (≈ 7.21 µM)	4 (≈ 7.21 µM)	> 32	> 32
CN(C)C(SCc1ccccc1SC1=C(C(=O)[O-])N2C(=O)[C@@H](NC(=O)Cc3ccccc3)[C@H]2SC1)=[N+](C)C [Cmpd 69, (7R)-7-[(Phenylacetyl)amino]-3-(2-tetramethylisothiouroniummethylphenylthio)-3-cephem-4-carboxylate, inner salt]	< 0.25	< 0.25	< 0.25	16	< 0.25	32	2	2	> 32	> 32
O=C(Cc1ccccc1)N[C@@H]1C(=O)N2C(C(=O)O)=C(Sc3ccccc3CSc3ccncc3)CS[C@H]12 [Cmpd 70]	< 0.25	< 0.25	< 0.25	16 (≈ 29.1 µM)	< 0.25	32 (≈ 58.2 µM)	2 (≈ 3.64 µM)	0.5 (≈ 0.91 µM)	> 32	> 32
Cn1nnnc1SCc1ccccc1SC1=C(C(=O)O)N2C(=O)[C@@H](NC(=O)Cc3ccccc3)[C@H]2SC1 [Cmpd 71]	< 0.25	< 0.25	< 0.25	> 32	< 0.25	> 32	2 (≈ 3.61 µM)	1 (≈ 1.8 µM)	> 32	> 32
O=C(Cc1ccccc1)N[C@@H]1C(=O)N2C(C(=O)O)=C(Sc3ccccc3CSC3=NCCN3)CS[C@H]12 [Cmpd 72]	< 0.25	< 0.25	< 0.25	16 (≈ 29.6 µM)	< 0.25	32 (≈ 59.2 µM)	2 (≈ 3.7 µM)	1 (≈ 1.85 µM)	> 32	> 32
C[n+]1ccc(SCc2ccccc2SC2=C(C(=O)[O-])N3C(=O)[C@@H](NC(=O)Cc4ccccc4)[C@H]3SC2)cc1 [Cmpd 73, (7R)-7-[(Phenylacetyl)amino]-3-(2-(N-methylpyridin-4-ium)thiomethyl)phenylthio)-3-cephem-4-carboxylate, inner salt]	< 0.25	< 0.25	< 0.25	16	< 0.25	32	1	0.5	> 32	> 32
CCN=C(NCC)SCc1ccccc1SC1=C(C(=O)O)N2C(=O)[C@@H](NC(=O)Cc3ccccc3)[C@H]2SC1 [Cmpd 74, (7R)-7-[(Phenylacetyl)amino]-3-(2-N,N'-diethylisothiouroniummethylphenylthio)-3-cephem-4-carboxylate, inner salt]	< 0.25	< 0.25	< 0.25	32	< 0.25	> 32	2	1	> 32	> 32
O=C(Cc1ccccc1)N[C@@H]1C(=O)N2C(C(=O)O)=C(Sc3ccccc3CSc3ncccn3)CS[C@H]12 [Cmpd 75]	< 0.25	< 0.25	< 0.25	32 (≈ 58.1 µM)	< 0.25	> 32	2 (≈ 3.63 µM)	1 (≈ 1.82 µM)	> 32	> 32
CNC(=N)SCc1ccccc1SC1=C(C(=O)O)N2C(=O)[C@@H](NC(=O)Cc3ccccc3)[C@H]2SC1 [Cmpd 76, (7R)-7-[(Phenylacetyl)amino]-3-(2-N-methylisothiouroniummethylphenylthio)-3-cephem-4-carboxylate, inner salt]	< 0.25	< 0.25	< 0.25	8	< 0.25	32	2	1	> 32	> 32

From US5607926A, “Cephalosporin antibiotics” (Microcide Pharmaceuticals, Inc., priority 1995, dated 1997)
